In patent US4743610A, “N-[ω(3-pyridinyl)alkyl]benzamides, useful as thromboxane synthetase enzyme and/or cardioprotective agents” (American Cyanamid Company, priority 1987, dated 1988):
Where a name gives a salt, the structure may show the parent alone.

Experiments:
Sprague-Dawley rats = experiment: In Vivo Test for the Prevention of Death Due to Infarction; conditions: 3 rats infarcted, 10 mg/kg intraperitoneal 1 h before 10 mg/kg s.c. (-)isoproternol hydrochloride, observed 2.5 hours; for responders at 10 mg/kg: Rattus norvegicus, ip, read-out: % Survival
Method: Beitz, Toxicology and Applied Pharmacology 62, 152-157 (1982) was performed as follows:
In Vivo Test for the Prevention of Death Due to Infarction
Sprague-Dawley rats were pretreated with an intraperitoneal injection of the test compound at 10 mg/kg of body weight. One hour later, a myocardial infarction was induced by injection 10 mg/kg of (-)isoproternol hydrochloride subcutaneously. Each compound was tested in at least three rats. […] The compound is considered "in vivo active" in those groups in which all animals survive the myocardial infarction.

[1] = target: T1, thromboxane synthetase enzyme (Rattus norvegicus, UniProt P49430); experiment: Inhibition of thromboxane formation (TXB2 RIA) in washed platelets of spontaneously hypertensive rats; assay type: cell-based, Okamoto-Aoki spontaneously hypertensive rats (SHR); conditions: SHR platelets, 10 minutes at 37° C.; drug concentration not given
T1 construct: The platelets were isolated by centrifuging the PRP for 10 minutes; endogenous in cells; host or cells: washed platelets from arterial blood of Okamoto-Aoki spontaneously hypertensive rats (SHR; animals from Taconic Farms, Germantown, N.Y.)
T1 sequence (P49430 1-533): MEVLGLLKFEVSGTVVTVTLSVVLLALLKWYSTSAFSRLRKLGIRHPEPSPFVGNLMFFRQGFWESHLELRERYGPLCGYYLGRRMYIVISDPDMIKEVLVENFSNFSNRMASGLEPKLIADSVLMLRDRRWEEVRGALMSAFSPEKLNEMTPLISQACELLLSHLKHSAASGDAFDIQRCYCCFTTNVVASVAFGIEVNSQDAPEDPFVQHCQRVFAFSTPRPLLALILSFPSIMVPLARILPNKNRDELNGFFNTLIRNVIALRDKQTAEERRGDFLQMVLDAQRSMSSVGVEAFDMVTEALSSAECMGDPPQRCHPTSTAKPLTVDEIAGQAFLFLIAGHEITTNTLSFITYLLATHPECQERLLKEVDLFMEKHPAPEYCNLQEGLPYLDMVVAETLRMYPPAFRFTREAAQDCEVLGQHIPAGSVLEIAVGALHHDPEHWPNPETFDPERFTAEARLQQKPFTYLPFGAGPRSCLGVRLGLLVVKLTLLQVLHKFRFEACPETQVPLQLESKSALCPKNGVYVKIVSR
Method: Under urethan anesthesia, […] of arterial blood was collected in one ml. of 3.2% sodium citrate in a polystyrene tube from Okamoto-Aoki spontaneously hypertensive rats (SHR) (Taconic Farms, Germantown, N.Y.) between 19 and 24 weeks in age. The blood was diluted with 3 ml. of cold saline and centrifuged at room temperature for 15 minutes at 460×g. The platelet rich plasma (PRP) was separated. The platelets were isolated by centrifuging the PRP for 10 minutes at 1060 xg and were washed in 4 ml. of cold oxygenated Krebs phosphate buffer, pH 7.4. The chilled platelets recovered from centrifuging at 800×g for 10 minutes were resuspended in oxygenated Krebs phosphate buffer and diluted to contain 4.5-6.0×10^4 platelets/μl. The inhibition of thromboxane (TX) formation was studied by determining the concentration of thromboxane B2 (TXB2), the stable hydrolysis product of TXA2. Assay samples, prepared on ice, contained 200 μl platelet suspension, 50 μl saline, and 50 μl vehicle or drug under study (OKY1581, UK-37248-01, 1-benzylimidazole, or indomethacin). The samples were incubated for 10 minutes at 37° C. in a metabolic shaker. The reaction was terminated by immersing the tubes in an ice bath and adding 50 μl of 0.5M citric acid. The samples were centrifuged for 10 minutes in a refrigerated centrifuge and the supernatants thus obtained were decanted and stored at -20° C. The TXB2 content for each sample was determined by a direct radioimmunoassay (RIA) utilizing a TXB2 specific RIA kit purchased from New England Nuclear, Boston, MA. and expressed as pg TXB2 formed minute^-1 sample^-1, from which the percent inhibition of TXB2 formation was calculated.

SMILES	No. of Rats Surviving (Sprague-Dawley rats)	responders at 10 mg/kg (Sprague-Dawley rats)	% Inhibition (of TXB2 formation) [1]
Nc1cc(Cl)ccc1C(=O)NCCCc1cccnc1 [2-Amino-4-chloro-N--[3-(3-pyridinyl)propyl]benzamide, dihydrochloride]	3	100%	
Nc1ccc(Cl)cc1C(=O)NCCCc1cccnc1 [2-Amino-5-chloro-N--[3-(3-pyridinyl)propyl]benzamide dihydrochloride]			98%
Nc1ccccc1C(=O)NCCc1cccnc1 [Example 1, 2-Amino-N-[2-(3-pyridinyl)ethyl]benzamide]	3	100%	
Cl.Cl.Nc1ccccc1C(=O)NCCCCc1cccnc1 [Example 2, 2-Amino-N-[4-(3-pyridinyl)butyl]benzamide dihydrochloride]	3	100%	97%
Cl.Cl.Nc1ccc(Cl)cc1C(=O)NCCCCc1cccnc1 [Example 3, 2-Amino-5-chloro-N-[4-(3-pyridinyl)butyl]benzamide dihydrochloride]	3	100%	
CNc1ccc(Cl)cc1C(=O)NCCCCc1cccnc1.Cl.Cl [Example 4, 5-Chloro-2-(methylamino)-N-[4-(3-pyridinyl)butyl]benzamide dihydrochloride]			99%
Cl.Cl.Nc1cc(Cl)ccc1C(=O)NCCCCc1cccnc1 [Example 6, 2-Amino-4-Chloro-N-[4-(3-pyridinyl)butyl]benzamide dihydrochloride]	3	100%	
Cc1ccc(N)c(C(=O)NCCCCc2cccnc2)c1.Cl.Cl [Example 7, 2-Amino-5-methyl-N-[4-(3-pyridinyl)butyl]benzamide dihydrochloride]	3	100%	100%
Nc1cc(Cl)ccc1C(=O)NCCCc1cccnc1 [Example 9, 2-Amino-4-chloro-N-[3-(3-pyridinyl)propyl]benzamide]			95%
Cl.Cl.Nc1c(C(=O)NCCCc2cccnc2)cccc1C(F)(F)F [Example 11, 2-Amino-N-[3-(3-pyridinyl)propyl]-3-(trifluoromethyl)benzamide dihydrochloride]			98%
O=C(O)c1ccccc1C(=O)NCCc1cccnc1 [Example 12, 2-[[[2-(3-Pyridinyl)ethyl]amino]carbonyl]benzoic acid]	3	100%	
O=C(O)c1ccccc1C(=O)NCCCCc1cccnc1 [Example 13, 2-[[[4-(3-Pyridinyl]butyl]amino]carbonyl]benzoic acid]			92%
O=C(O)c1ccc(Cl)cc1C(=O)NCCCCc1cccnc1 [Example 14, 4-Chloro-2-[[[4-(3-pyridinyl)butyl]amino]carbonyl]benzoic acid]	3	100%	100%
